The record followed here is article PMC6222886, “Isolation of Tricin as a Xanthine Oxidase Inhibitor from Sweet White Clover (Melilotus albus) and Its Distribution in Selected Gramineae Species” (Molecules : A Journal of Synthetic Chemistry and Natural …, 2018).

This experiment addresses T1, xanthine oxidase (XO) (Bos taurus, UniProt P80457).
T1 construct: gene XDH
Kind of experiment: xanthine oxidase inhibition assay with Lineweaver-Burk kinetics (IC50 […]; KI […]). The experiment is classed as biochemical.

T1 sequence (P80457 2-1332): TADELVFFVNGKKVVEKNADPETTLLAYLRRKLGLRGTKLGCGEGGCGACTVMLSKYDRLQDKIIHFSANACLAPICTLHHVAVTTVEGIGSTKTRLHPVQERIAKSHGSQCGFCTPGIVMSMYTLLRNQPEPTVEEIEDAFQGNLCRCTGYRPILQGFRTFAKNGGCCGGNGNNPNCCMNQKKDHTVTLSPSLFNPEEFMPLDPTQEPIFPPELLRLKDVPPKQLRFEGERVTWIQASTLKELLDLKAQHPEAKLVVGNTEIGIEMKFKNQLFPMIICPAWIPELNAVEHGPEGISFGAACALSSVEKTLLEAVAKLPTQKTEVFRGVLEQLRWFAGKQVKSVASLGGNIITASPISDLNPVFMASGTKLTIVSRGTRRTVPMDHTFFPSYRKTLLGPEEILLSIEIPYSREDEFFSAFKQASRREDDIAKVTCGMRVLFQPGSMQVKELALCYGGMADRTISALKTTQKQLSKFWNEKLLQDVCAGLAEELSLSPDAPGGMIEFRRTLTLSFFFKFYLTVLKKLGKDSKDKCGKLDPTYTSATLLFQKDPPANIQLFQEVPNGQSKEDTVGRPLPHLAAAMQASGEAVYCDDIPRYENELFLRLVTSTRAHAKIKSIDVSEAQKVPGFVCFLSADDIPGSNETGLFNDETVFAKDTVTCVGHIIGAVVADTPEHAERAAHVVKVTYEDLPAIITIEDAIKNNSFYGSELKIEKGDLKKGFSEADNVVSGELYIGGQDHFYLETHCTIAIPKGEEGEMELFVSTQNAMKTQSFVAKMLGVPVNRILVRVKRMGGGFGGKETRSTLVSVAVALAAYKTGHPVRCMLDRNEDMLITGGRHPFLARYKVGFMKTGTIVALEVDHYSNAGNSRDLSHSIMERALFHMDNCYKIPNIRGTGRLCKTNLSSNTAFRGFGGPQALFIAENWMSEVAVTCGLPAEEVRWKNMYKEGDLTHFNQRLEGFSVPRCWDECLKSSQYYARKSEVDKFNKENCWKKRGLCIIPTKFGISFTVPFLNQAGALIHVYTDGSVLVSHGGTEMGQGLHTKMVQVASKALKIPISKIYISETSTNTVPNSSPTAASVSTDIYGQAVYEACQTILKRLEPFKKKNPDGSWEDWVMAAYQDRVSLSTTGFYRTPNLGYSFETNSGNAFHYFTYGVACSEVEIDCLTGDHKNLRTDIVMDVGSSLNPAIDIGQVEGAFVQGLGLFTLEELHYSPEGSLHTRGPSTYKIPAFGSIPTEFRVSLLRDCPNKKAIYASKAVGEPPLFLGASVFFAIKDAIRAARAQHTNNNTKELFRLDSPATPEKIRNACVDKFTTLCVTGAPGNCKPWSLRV

`COc1cc(-c2cc(=O)c3c(O)cc(O)cc3o2)cc(OC)c1O` [tricin] had a Ki of 470 nM.

For orientation: Ki means the equilibrium dissociation constant of an inhibitor or competing ligand from its target.
